Test system: HeLa cells
Assay: HeLa cell 24 hr ploidy assay (DNA content)
Format: cell-based
Conditions: Homo sapiens, HeLa, HeLa cells, 4N ploidy, average, read-out: 24h_4NPloidy EC50_IP (uM Avg)
How it was run: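 DNA content measured by Hoechst 33342 nuclear staining (0.5 ug/ml, 45 min RT) and high-content imaging of fixed HeLa cells after 24 h compound exposure in 0.25% DMSO. Fractions of 4N and >4N cells fitted to dose curves giving EC50 IP, EC50 transit, Max and Min.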

Row | SMILES | EC50
1 | COCCOCCOc1ccc2nccc(Sc3ccc(Nc4nnc(-c5ccc(Cl)cc5)c5ccccc45)cc3)c2n1 [compound 475] | 0.017 µM
2 | COCCOCCn1c(=O)ccc2nccc(Sc3ccc(Nc4nnc(-c5ccc(Cl)cc5)c5ccccc45)cc3)c21 [compound 476] | 0.14 µM
3 | COc1cnc2c(Sc3ccc(Nc4nnc(-c5ccc(C)c(N)c5)c5ccccc45)cc3)ccnc2c1 [compound 477] | 0.001 µM
4 | COC1CCN(c2nnc(Nc3ccc(Oc4ccnc5ccoc45)cc3)c3ccccc23)CC1 [compound 478] | 0.381 µM
5 | Cc1ccc(-c2nnc(Nc3ccc(Sc4ccnc5ccoc45)cc3)c3ccccc23)cc1N [compound 479] | 0.009 µM
6 | Cc1ccc(-c2nnc(Nc3ccc(Oc4ccnc5ccoc45)cc3)c3ccccc23)cc1N [compound 480] | 0.112 µM
7 | Cc1ccc(-c2nnc(Nc3ccc(Sc4ccnc5ccoc45)cc3)c3ccccc23)cn1 [compound 481] | 0.032 µM
8 | Cc1ccc(-c2nnc(Nc3ccc(Sc4ccnc5ccoc45)cc3)c3ccccc23)nc1 [compound 482] | 0.036 µM
9 | Clc1ccc(-c2nnc(Nc3ccc(Oc4ccnc5ccoc45)cc3)c3ccccc23)cc1 [compound 483] | 0.102 µM
10 | C[Si](C)(C)c1cc2nccc(Sc3ccc(Nc4nnc(Cl)c5ccccc45)cc3)c2o1 [compound 484] | > 1.2 µM
11 | COc1ccc(-c2nnc(Nc3ccc(Sc4ccnc5ccoc45)cc3)c3ccccc23)cn1 [compound 485] | 0.069 µM
12 | Clc1ccc(-c2nnc(Nc3ccc(Sc4ccnc5cc(C6CC6)oc45)cc3)c3ccccc23)cc1 [compound 486] | 0.002 µM
13 | Cc1ccc(-c2nnc(Nc3ccc(Sc4ccnc5cc(C6CC6)oc45)cc3)c3ccccc23)cc1N [compound 487] | 0.006 µM
14 | Cc1cccc(-c2nnc(Nc3ccc(Sc4ccnc5ccoc45)cc3)c3ccccc23)n1 [compound 488] | 0.241 µM
15 | N#Cc1cc2nccc(Sc3ccc(Nc4nnc(-c5ccc(Cl)cc5)c5ccccc45)cc3)c2o1 [compound 489] | 0.017 µM
16 | Cc1ccc(-c2nnc(Nc3ccc(Sc4ccnc5cc(C#N)oc45)cc3)c3ccccc23)cc1N [compound 490] | 0.009 µM
17 | Cc1cc2nccc(Sc3ccc(Nc4nnc(-c5ccc(Cl)cc5)c5ccccc45)cc3)c2o1 [compound 491] | 0.037 µM
18 | Cc1cc2nccc(Sc3ccc(Nc4nnc(-c5ccc(C)c(N)c5)c5ccccc45)cc3)c2o1 [compound 492] | 0.021 µM
19 | Clc1ccc(-c2nnc(Nc3ccc(Sc4ccnc5cccnc45)cc3)c3ccccc23)nc1 [compound 493] | 0.016 µM
20 | COc1cc2nccc(Sc3ccc(Nc4nnc(-c5cc(C)cs5)c5ccccc45)cc3)c2cn1 [compound 494] | 0.009 µM
21 | COc1cnc2c(Sc3ccc(Nc4nnc(-c5ccccc5F)c5ccccc45)cc3)ccnc2c1 [compound 495] | 0.024 µM
22 | FC(F)(F)Oc1ccc2c(Oc3ccc(Nc4nnc(-c5ccccc5)c5ccccc45)cc3)ccnc2c1 [compound 496] | 0.397 µM
23 | FC(F)(F)Oc1ccc2c(Sc3ccc(Nc4nnc(-c5ccccc5)c5ccccc45)cc3)ccnc2c1 [compound 497] | 0.079 µM
24 | FC(F)(F)Oc1ccc2c(Oc3ccc(Nc4nnc(-c5ccc(Cl)cc5)c5ccccc45)cc3)ccnc2c1 [compound 498] | 0.078 µM
25 | Cc1csc(-c2nnc(Nc3ccc(Sc4ccnc5cc(OC(F)(F)F)ccc45)cc3)c3ccccc23)c1 [compound 499] | 0.052 µM
26 | CN(c1ccc(Oc2ccnc3ccc(=O)[nH]c23)cc1)c1nnc(-c2ccc(Cl)cc2)c2ccccc12 [compound 500] | > 1.2 µM
27 | COc1cnc2c(Sc3ccc(Nc4nnc(-c5ccc6occc6c5)c5ccccc45)cc3)ccnc2c1 [compound 501] | 0.014 µM
28 | COc1cnc2c(Sc3ccc(Nc4nnc(-c5ccc6cn(C)nc6c5)c5ccccc45)cc3)ccnc2c1 [compound 502] | 0.006 µM
29 | COc1cnc2c(Sc3ccc(Nc4nnc(N5CCN(C)CC5)c5ccccc45)cc3)ccnc2c1 [compound 503] | 0.014 µM
30 | COc1cnc2c(Sc3ccc(Nc4nnc(-c5ccc6nonc6c5)c5ccccc45)cc3)ccnc2c1 [compound 504] | 0.006 µM
